Results from PubChem BioAssay (NCI).
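Five concentrations, 48 hours, 96-well plates. TGI is the concentration that stops growth completely.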

Experiments:
Test in all cases: growth of human tumour cells (NCI), 48 h
HOP-62 NSCLC = tested on: HOP-62 NSCLC
HOP-92 NSCLC = tested on: HOP-92 NSCLC
K-562 leukemia = tested on: K-562 leukemia
MALME-3M melanoma = tested on: MALME-3M melanoma
NCI-H522 lung = tested on: NCI-H522 lung
RXF 393 renal = tested on: RXF 393 renal
SF-268 CNS = tested on: SF-268 CNS
SW-620 colon = tested on: SW-620 colon
U251 CNS = tested on: U251 CNS
UACC-62 melanoma = tested on: UACC-62 melanoma

SMILES	TGI (HOP-62 NSCLC) [µM]	TGI (HOP-92 NSCLC) [µM]	TGI (K-562 leukemia) [µM]	TGI (MALME-3M melanoma) [µM]	TGI (NCI-H522 lung) [µM]	TGI (RXF 393 renal) [µM]	TGI (SF-268 CNS) [µM]	TGI (SW-620 colon) [µM]	TGI (U251 CNS) [µM]	TGI (UACC-62 melanoma) [µM]
CC(=O)Oc1cc2c(cc1OCC(F)(F)F)[C@H]1CC[C@]3(C)[C@@H](OC(C)=O)CC[C@H]3[C@@H]1CC2=O	> 70	40.2	> 100	47.9	> 70	50	> 77.4	> 92.4	> 74.1	42.6
COc1cccc2c(=O)oc(-c3ccccc3C)nc12	76.3	> 100	> 100	> 100	> 100	> 100	> 100	> 100	> 100	> 100
C[C@H]1CCC/C=C/[C@@H]2C[C@H](OC3OC(CO)C(O)C(O)C3O)C[C@H]2[C@H](O)/C=C/C(=O)O1 (stereo not given in full)	> 100	> 100	> 100	33.1	> 100	87.3	> 100	> 100	> 100	> 100
